Read-outs that look alike come from different tables or passages of the source. Where a SMILES comes first, the peptide text is derived from it. The star is where a group is joined. Fmoc = O=C(OCC1c2ccccc2-c2ccccc21)*
Tests used:
[1] = for G' (storage modulus): at 1 Hz
Method: Rheological measurements were performed on AR 2000 controlled stress rheometer (TA Instruments Ltd, Great Britain) operated in cone-plate mode (cone angles 1 and 4 with diameters of 60 and 40 mm, respectively). Small-amplitude oscillatory shear experiments (0.1-10 Hz) were performed within the linear viscoelastic limit. Frequency scans were performed at the lowest stress possible to prevent damage to the sample. The linearity of response was monitored continuously to ascertain linear viscoelasticity.
To study the biomechanical characteristics of the novel hydrogel, rheology measurements were performed.

[2] = tested on: Chinese Hamster Ovary (CHO) cells; experiment: in vitro
Method: (§1) For cell growth in vitro experiments Chinese Hamster Ovary (CHO) cells were grown in Dulbecco's Modified Eagle Medium (DMEM) supplemented with 10% Fetal Calf Serum, 100 U/ml penicillin, 100 U/ml streptomycin and 2 mmol/liter L-glutamine (all from Beit Haemek, Israel). Cells were maintained at 37° C. in a humidified atmosphere containing 5% CO2. Sub-confluent cells were harvested by trypsinization, counted and diluted in the cells media to 1×10^5 cells/ml. The gel was washed three times with 0.5 ml water for 30 minutes at a time and was then left overnight in 0.5 ml DMEM. The DMEM was thereafter removed and 500 μl of CHO cells (5×10^4 cells) were added over the hydrogel. After a 24 hour incubation period at 37° C. the viability of the cells was determined using a MTT (3-(4,5-dimethylthiazolyl-2)-2,5-diphenyltetrazolium bromide) assay [Nowak et al., Nature 417, 424 (2002)].
(§2) In order to exploit whether the peptide-based hydrogel described herein can serve as a scaffold for tissue engineering applications, its biocompatibility was examined using cellular in vitro experiments. Chinese Hamster Ovary (CHO) cells were suspended above the hydrogel after its formation in a […]. After a one-day incubation period the cells were analyzed for viability.

in vitro = conditions: CHO cells seeded on the peptide hydrogel
Method: as §1, §2

[3] = HFIP stock, 5 mg/ml
Method: Determination of water percentage in the gel was done by washing a freshly formed hydrogel with water five times, each time for 15 minutes, followed by weighing the gel, lyophilizing it and weighing the remaining peptide aggregate.

[4] = cited from earlier work
[5] = CHO cells on hydrogel from HFIP stock, one-day incubation

Compound | storage modulus G' excess over loss modulus G'' ([1]; HFIP stock, final concentration 5 mg/ml (FIG. 3a)) | G' (storage modulus) ([1]; peptide concentration 5 mg/ml, solvent not stated) | G' (storage modulus) ([1]; peptide final concentration 1 mg/ml, stock solution solvent DMSO) | G' (storage modulus) ([1]; peptide final concentration 2 mg/ml, acetone stock solution) | G' (storage modulus) ([1]; peptide final concentration 5 mg/ml, stock solution solvent HFIP) | G' (storage modulus) ([1]; peptide final concentration 5 mg/ml, stock solution solvent HFIP, listed as Fmoc-diphenylalanine) | G' (storage modulus) ([1]; peptide final concentration 5 mg/ml, stock solution solvent acetone) | G' (storage modulus) ([1]; peptide final concentration 10 mg/ml, acetone stock solution (FIG. 3c)) | G' relative to that reported for other self-assembled peptide hydrogels ([1]; versus hydrogels formed without chemical cross linking) | cell morphology [2, 5] | rate of proliferation [2, 5] | cell growth on hydrogel compared with poly lysine ([2]; CHO cells, hydrogel from DMSO stock, final DMSO concentration 1%) | viability at 24 h (in vitro) | hydrogel water content [3] | G' (storage modulus) ([4]; 5 mg/ml, Tris HCl buffer, at 1 Hz, reported value) | G' (storage modulus) ([4]; 5 mg/ml, Tris HCl buffer, at 1 Hz, reported value, listed as PuraMatrix gel) | G' (storage modulus) ([4]; at 1 Hz frequency, concentration not given)
O=C(N[C@@H](Cc1ccccc1)C(=O)N[C@@H](Cc1ccccc1)C(=O)O)OCC1c2ccccc2-c2ccccc21 [Fmoc-Phe-Phe, Fmoc-diphenylalanine] (Fmoc-Phe-Phe-OH) | about one order of magnitude | about 2×10^4 Pa | 1,000 Pa | about 2×10^3 Pa | 10,000 Pa | about 10^4 Pa | 10,000 Pa | about 2×10^4 Pa | 200 fold | normal cell morphology | normal rate of proliferation | effective matrix for cell growth | > 80% | greater than 99% |  |  | 
[COCH3]-RADARADARADARADA-[CONH2] [RADA16 (Puramatrix)] |  |  |  |  |  |  |  |  |  |  |  |  |  |  | 50 Pa | about 50 Pa | about 50 Pa

From US10004828B2, “Self-assembled Fmoc-ff hydrogels” (Romat at Tel-Aviv University Ltd., priority 2005, dated 2018)
